In patent US20060095978A1, “Screening assay” (priority 2002, published 2006):

Experiments:
[1] = system: CD69 on CD8+ T cells; assay: CD69 expression on CD8+ T cells of antigen-stimulated OT-1 mice (FACS); format: in vivo, mouse
Protocol: (§1) OT-1 mice are obtained as described in Hogquist et al., 1994, Cell 76(1)17-27. The animals are maintained in Microvent positive air supply cages (22±1° C., 55±5% relative humidity, 50-70 changes of fresh air/hour and 12 hours day and night cycle) with sawdust bedding. Standard laboratory mouse chow (SNIFF, Soest, Germany) and drinking water is given ad libitum. Groups of two to four, 8-10 weeks old, male or female OT-1 mice weighing between 20-25 g are used for the experiments described. The animals are grouped (4 per group) in type II Macrolon cages one day before the experiment.
Doses of 3, 0.3 and 0.1 mg/kg b.w. are administered orally by gavage 2 hours before antigen challenge. […]
(§2) Single cell suspensions of spleen or blood containing approximately 1×10^6 cells in 100 μl of FACS buffer are used for staining. […] Lymphocytes are gated in the FSC/SSC dot blot according to size and granularity and further analyzed for expression of CD8, TCR Vβ5 expression and activation markers. Data are presented as original dot blots or are calculated from dot blots as percentage of cells positively stained for TCR or activation markers within the CD8^+ population.
Data calculated from FACS analysis or serum cytokine determination are given as individual values for each animal. Data are analysed for normal distribution and then the ANOVA test for multiple comparison is applied using SigmaStat software. […]

[2] = system: CD25 on CD8+ T cells; assay: CD25 expression on CD8+ T cells of peptide-stimulated OT-1 mice (FACS); format: in vivo, mouse; conditions: 100 μg OVA257-264, after 7 hours
Protocol: The animals are maintained in Microvent positive air supply cages (22±1° C., 55±5% relative humidity, 50-70 changes of fresh air/hour and 12 hours day and night cycle) with sawdust bedding.

[3] = system: IL-2; assay: Serum IL-2 in OVA257-264 stimulated OT-1 mice (sandwich ELISA); format: in vivo, mouse
Protocol: as §1
(§3) Cells are stimulated as described above and supernatant is harvested after 48 hours. The quantity of cytokines released by T cells into the culture medium after antigen stimulation is assayed by conventional sandwich ELISA. […] Specifically bound cytokines are quantified using biotinylated secondary antibodies JES6-5H4 (anti-IL-2), BVD6-24G2 (anti-IL-4), TRFK4 (anti-IL-5), SXC-1 (anti-IL-10) and XMG1.2 (anti-IFN-γ) followed by extravidin peroxidase and TMB substrate (both from Sigma). Absorption is measured at 450 and 690 nm on a Spectramax 340PC reader (Molecular Devices, Sunnyvale, Calif.). All cytokines are quantified with standard curves obtained with known amounts of recombinant mouse cytokines using SoftMax 3 software. […]

[4] = system: IFN-γ; assay: Serum IFN-γ in OVA257-264 stimulated OT-1 mice (sandwich ELISA); format: in vivo, mouse
Protocol: as §1, §3

[5] = system: CD8+ T cells; assay: Frequency of CD8+ T cells in blood and spleen of OT-1 mice (FACS); format: in vivo, mouse
Protocol: as §1
Doses of 3, 0.3 and 0.1 mg/kg b.w. are administered orally by gavage 2 hours before antigen challenge. The compound is diluted with solvent (Neoral Placebo) and given in a volume of 0.2 ml. Animals in the control group receive the solvent only. Ovalbumin-derived peptide (OVA257-264, […], >80% purity, piChemie R&D, Graz, Austria) or whole OVA (Sigma) are used as antigens. Both are diluted in PBS and administerd i.p. in a final volume of 0.2 ml. At various time points after OVA257-264 peptide injection about 200 μl blood is withdrawn from the retro-orbital plexus under ether anesthesia. In order to avoid coagulation, blood is collected in EDTA-containing buffer. Mice are killed by cervical dislocation and the spleen is excised. Single cell suspension are prepared in PBS by gently pressing the spleen through a 100 μm cell strainer. Finally, blood and spleen cells are washed with FACS buffer (PBS, 1 g/l EDTA, 1 g/l NaN3, 10% FCS; pH 7.1) and taken up in the same buffer for FACS analysis.
as §2

[6] = system: IFN-γ; assay: Serum IFN-γ in OVA/OVA323-339 stimulated DO11.10 mice (ELISA); format: in vivo, mouse; conditions: for IFN-γ level in pg/ml serum after day 0: 3 hours after first i.p. injection; for IFN-γ level in pg/ml serum after day 14: 3 hours after second i.p. injection
Protocol: Groups of six, 8-10 weeks old, male or female DO11.10 mice weighing between 20-22 g are obtained as described in Murphy K. M. et al. 1990, Science 250:1720-1722. The animals are maintained in Microvent positive air supply cages (22±1° C., 55±5% relative humidity, 50-70 changes of fresh air/hour and 12 hours day and night cycle) with sawdust bedding. Standard laboratory mouse chow (SNIFF, Soest, Germany) and drinking water is given ad libidum. The animals are used for the study after an adaptation period of 10-14 days and grouped (6 per group) in type II Macrolon cages one day before the experiment.
Groups of six DO11.10 mice are i.p. injected with 10 μg of ovalbumin (OVA, Sigma, St. Louis, USA) absorbed to 2 mg of Al(OH)3 (Alu Gel S; 2% Al(OH)3, Serva, Heidelberg, FRG) and diluted with saline to a volume of 0.2 ml or various amounts (1, 3, 10, 30, or 90 μg per mouse) of alum-precipitated OVA323-339 peptide (98% purity, piChem R&D, Graz Austria) in 0.2 ml on days 0 and 14. Before and at different time points on days 0 and 14 after the OVA or OVA323-339 peptide administration about 200 μl of blood are collected by puncture of the retro-orbital plexus under ether anesthesia.
The sera are collected and stored frozen at −20° C. until analyzed. […]
Murine IL-2, IFN-γ and IL-4 are analyzed by immunoassays (Quantikine R&D Systems, Minneapolis, Minn., USA). Results are expressed as pg per ml serum expressed as mean±SEM pg of the cytokine indicated per ml serum. Test and control groups are evaluated by Dunn test by Kruskall-Wallis One Way Anova using the SigmaStat® program. […]
Mice of the control group are injected with alum. Blood is collected before and at 2, 4, and 6 hours after the first peptide injection. INF-γ is determined in the sera by an ELISA. Results are expressed as mean pg per ml serum±SEM. […]

[7] = system: Splenocytes of OT-1 mice; assay: Cytokine production assay, OT-1 splenocytes; format: cell-based, mouse; conditions: high amounts of OVA protein
Protocol: Cells are stimulated as described above and supernatant is harvested after 48 hours. The quantity of cytokines released by T cells into the culture medium after antigen stimulation is assayed by conventional sandwich ELISA. Microtiter plates (Nunc-Immunoplate™) are coated with the cytokine-specific capture antibodies JES6-1A12 (anti-IL-2), 11B11 (anti-IL-4), TRFK5 (anti-IL-5), JES5-2A5 (anti-IL-10) or R4-6A2 (anti-IFN-γ) at 4° overnight. Supernatants are incubated on the coated plates for 2 hours. Specifically bound cytokines are quantified using biotinylated secondary antibodies JES6-5H4 (anti-IL-2), BVD6-24G2 (anti-IL-4), TRFK4 (anti-IL-5), SXC-1 (anti-IL-10) and XMG1.2 (anti-IFN-γ) followed by extravidin peroxidase and TMB substrate (both from Sigma). Absorption is measured at 450 and 690 nm on a Spectramax 340PC reader (Molecular Devices, Sunnyvale, Calif.). All cytokines are quantified with standard curves obtained with known amounts of recombinant mouse cytokines using SoftMax 3 software. All mAbs and recombinant mouse cytokine standards are purchased from BD PharMingen, Heidelberg, Germany.

[8] = system: Splenocytes of OT-1 mice; assay: T cell proliferation assay, OT-1 splenocytes; format: cell-based, mouse; conditions: high amounts of OVA protein
Protocol: Splenocytes (4×10^5 cells/well) of OT-1 mice are stimulated in 200 μl final volume in 96-well flat bottomed plates with titrated amounts of OVA or OVA257-264 peptide at 37°. As medium RPMI 1640 supplemented with 10% FCS, 2.0 g/l NaHCO3, 2 mM L-glutamin, 100 IU/ml penicillin, 100 μg/ml streptomycin and 5×10^−5 M β-mercaptoethanol (Sigma, Vienna, Austria) is used. After 48 hours, cells are pulsed with 0.5 μCi ^3H-thymidine for 8 hours and the incorporated radioactivity is measured on a liquid scintillation β-counter (Trilux, 1450 Microbeta, Wallac, Turku, Finland).

[9] = peptide-induced activation in OT-1 mice

Molecule: OVA257-264: peptide derived from chicken ovalbumin containing amino acids from position 257 to 264
- maximal up-regulation of CD69 ([1]; 100 μg OVA257-264, after 3 hours): ca. 155 fold increase
- maximal up-regulation of CD25 [2]: ca. 40 fold increase
- time of early peak of serum IL-2 [3, 9]: 4 h
- minimal amount required to induce significant serum quantities of IL-2 ([3]; per animal, i.p., 4 hours): 30 µg
- time of early peak of serum IFN-γ [4, 9]: 4 h
- minimal amount required to induce significant serum quantities of IFN-γ ([4]; per animal, i.p., 4 hours): 30 µg
- change of CD8+ T cells in the spleen ([5]; 100 μg OVA257-264 i.p.): no significant decrease
- frequency of CD8+ expressing cells among the lymphocyte population in the blood ([5]; 100 μg OVA257-264 i.p., within 3 hours, from around 30%): less than 2.5%

Molecule: p/p: 10 μg OVA323-339 peptide/10 μg OVA323-339 peptide i.p. on days 0 and 14 (KISQAVHAAHAEINEAG; UniProt P01012 323-339, looked up, fragment)
- IFN-γ level in pg/ml serum after day 0 [6]: 483.215 ± 134.641 pg/mL
- IFN-γ level in pg/ml serum after day 14 [6]: 554.136 ± 110.652 pg/mL

B1: OVA: chicken ovalbumin (protein, UniProt P01012 2-386, looked up)
Ovalbumin: GSIGAASMEFCFDVFKELKVHHANENIFYCPIAIMSALAMVYLGAKDSTRTQINKVVRFDKLPGFGDSIEAQCGTSVNVHSSLRDILNQITKPNDVYSFSLASRLYAEERYPILPEYLQCVKELYRGGLEPINFQTAADQARELINSWVESQTNGIIRNVLQPSSVDSQTAMVLVNAIVFKGLWEKAFKDEDTQAMPFRVTEQESKPVQMMYQIGLFRVASMASEKMKILELPFASGTMSMLVLLPDEVSGLEQLESIINFEKLTEWTSSNVMEERKIKVYLPRMKMEEKYNLTSVLMAMGITDVFSSSANLSGISSAESLKISQAVHAAHAEINEAGREVVGSAEAGVDAASVSEEFRADHPFLFCIKHIATNAVLFFGRCVSP
- increase of CD69 expression in the spleen ([1]; 1 mg OVA i.p., late (7-24 hours)): ≤ 2.5 fold
- serum INF-γ levels after challenge with OVA-protein ([6]; given amount (10 μg) of OVA-protein): under the detection limit
- INF-γ levels after second OVA exposure versus before ([6]; primary OVA, second OVA exposure 2 weeks later): fail to increase
- serum INF-γ levels versus alum alone ([6]; primary sensitization with 10 μg of OVA): does not change
- frequency of CD8+ T cells in both spleen and blood ([5]; 1 mg OVA i.p., over 48 hours): declines marginally
- cytokine release of OT-1 splenocytes in vitro [7]: cytokine release
- proliferation of OT-1 splenocytes in vitro [8]: induce proliferation

B2: o/o: 10 μg OVA/10 μg OVA i.p. on days 0 and 14 (protein, UniProt P01012 2-386, looked up)
Ovalbumin: B1 Ovalbumin
- IFN-γ level in pg/ml serum after day 0 [6]: 3.788 ± 1.495 pg/mL
- IFN-γ level in pg/ml serum after day 14 [6]: 6.796 ± 6.189 pg/mL
